Assay results: ChEMBL document CHEMBL3286148, “Aminoazabenzimidazoles, a novel class of orally active antimalarial agents” (J Med Chem, 2014)
In brackets after ≈: the same amount, converted by molar mass.

Tests used:
Plasmodium falciparum [1] = assay: Antiplasmodial activity against Plasmodium falciparum Dd2; assay type: functional, organism-based
Plasmodium falciparum [2] = assay: Antiplasmodial activity against Plasmodium falciparum Dd2 harboring CRT mutant; assay type: functional, organism-based
Plasmodium falciparum [3] = assay: Antiplasmodial activity against Plasmodium falciparum Dd2 harboring DHODH mutant; assay type: functional, organism-based
Plasmodium falciparum [4] = assay: Antiplasmodial activity against Plasmodium falciparum Dd2 harboring HSP90 mutant; assay type: functional, organism-based
Plasmodium falciparum [5] = assay: Antiplasmodial activity against Plasmodium falciparum Dd2 harboring CYTb-Qi mutant; assay type: functional, organism-based
[6] = Selectivity index, ratio of IC50 for human A549 cells to IC50 for Plasmodium falciparum; assay type: toxicity, cell-based; settings: read-out: Ratio IC50
Plasmodium falciparum [7] = assay: microbe, parasite or virus in culture; settings: NF54, 72 h
Plasmodium falciparum [8] = assay: microbe, parasite or virus in culture; settings: Dd2, 72 h
Description: Antiplasmodial activity against Plasmodium falciparum Dd2 after 72 hrs by SYBR I method

Plasmodium falciparum [9] = assay: microbe, parasite or virus in culture; settings: W2, 72 h
Description: Antiplasmodial activity against Plasmodium falciparum W2 after 72 hrs by SYBR I method

Plasmodium falciparum [10] = assay: microbe, parasite or virus in culture; settings: 7G8, 72 h
Description: Antiplasmodial activity against Plasmodium falciparum 7G8 after 72 hrs by SYBR I method

Plasmodium falciparum [11] = assay: microbe, parasite or virus in culture; settings: K1, 72 h
Plasmodium falciparum [12] = assay: microbe, parasite or virus in culture; settings: SB1, 72 h
Description: Antiplasmodial activity against Plasmodium falciparum SB1 after 72 hrs by SYBR I method

[13] = molecular target: Voltage-gated inwardly rectifying potassium channel KCNH2 (Homo sapiens, UniProt Q12809); assay: Inhibition of human ERG
Chain of Voltage-gated inwardly rectifying potassium channel KCNH2 (Q12809 whole entry): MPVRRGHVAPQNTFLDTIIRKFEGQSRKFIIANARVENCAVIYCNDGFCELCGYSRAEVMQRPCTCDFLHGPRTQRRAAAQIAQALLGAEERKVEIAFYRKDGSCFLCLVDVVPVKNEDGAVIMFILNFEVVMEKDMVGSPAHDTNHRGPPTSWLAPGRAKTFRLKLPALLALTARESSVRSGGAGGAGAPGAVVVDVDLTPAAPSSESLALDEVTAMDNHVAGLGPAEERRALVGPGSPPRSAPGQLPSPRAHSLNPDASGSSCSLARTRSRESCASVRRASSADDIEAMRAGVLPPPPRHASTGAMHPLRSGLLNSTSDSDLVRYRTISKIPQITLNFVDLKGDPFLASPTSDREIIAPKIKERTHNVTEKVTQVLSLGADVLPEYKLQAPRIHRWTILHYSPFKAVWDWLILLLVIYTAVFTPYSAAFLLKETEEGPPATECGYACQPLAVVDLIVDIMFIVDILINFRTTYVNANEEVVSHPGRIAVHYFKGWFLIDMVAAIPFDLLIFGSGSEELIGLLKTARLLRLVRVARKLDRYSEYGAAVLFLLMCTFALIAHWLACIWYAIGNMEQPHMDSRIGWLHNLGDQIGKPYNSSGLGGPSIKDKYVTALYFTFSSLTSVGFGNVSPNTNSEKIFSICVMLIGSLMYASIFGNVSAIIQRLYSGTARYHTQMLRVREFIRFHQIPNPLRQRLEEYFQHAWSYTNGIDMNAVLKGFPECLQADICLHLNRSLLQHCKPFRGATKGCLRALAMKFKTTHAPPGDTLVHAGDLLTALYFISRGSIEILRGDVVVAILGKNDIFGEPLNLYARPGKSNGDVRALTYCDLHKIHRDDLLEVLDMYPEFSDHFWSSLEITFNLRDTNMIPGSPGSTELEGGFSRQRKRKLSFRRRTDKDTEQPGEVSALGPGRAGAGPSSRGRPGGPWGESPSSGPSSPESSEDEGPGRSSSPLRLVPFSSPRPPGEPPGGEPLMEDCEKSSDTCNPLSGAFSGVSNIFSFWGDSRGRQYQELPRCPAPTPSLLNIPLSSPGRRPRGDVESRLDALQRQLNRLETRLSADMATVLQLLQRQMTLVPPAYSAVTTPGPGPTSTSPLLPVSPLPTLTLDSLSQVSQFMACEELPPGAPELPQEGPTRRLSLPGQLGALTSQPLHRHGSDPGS

[14] = Clearance in rat hepatocytes assessed per 1E6 cells; assay type: ADME, cell-based, Hepatocyte; settings: read-out: CLH
[15] = Clearance in human liver microsomes; assay type: ADME; settings: read-out: CLH
[16] = Clearance in mouse liver microsomes; assay type: ADME; settings: read-out: CLH
Cytochrome P450 3A4 = Cytochrome P450 3A4 (Homo sapiens, UniProt P08684); assay: Inhibition of CYP3A4 (unknown origin); assay type: ADME
Chain of Cytochrome P450 3A4 (P08684 whole entry): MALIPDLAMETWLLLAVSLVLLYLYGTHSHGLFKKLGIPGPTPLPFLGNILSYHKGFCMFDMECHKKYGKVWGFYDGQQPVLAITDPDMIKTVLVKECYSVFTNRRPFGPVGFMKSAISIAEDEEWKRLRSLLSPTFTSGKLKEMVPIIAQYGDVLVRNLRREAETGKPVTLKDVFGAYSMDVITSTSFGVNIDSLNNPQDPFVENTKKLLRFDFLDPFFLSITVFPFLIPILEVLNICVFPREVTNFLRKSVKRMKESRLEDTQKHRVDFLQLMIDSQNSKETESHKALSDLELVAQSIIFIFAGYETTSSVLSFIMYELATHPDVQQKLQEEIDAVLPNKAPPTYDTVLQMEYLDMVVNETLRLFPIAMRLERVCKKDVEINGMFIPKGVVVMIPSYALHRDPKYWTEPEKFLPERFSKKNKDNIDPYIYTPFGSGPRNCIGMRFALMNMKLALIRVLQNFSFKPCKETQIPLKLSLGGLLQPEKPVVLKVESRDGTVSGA

[17] = Aqueous solubility of the compound; assay type: physicochemical; settings: buffer
Cytochrome P450 2D6 = Cytochrome P450 2D6 (Homo sapiens, UniProt P10635); assay: Inhibition of CYP2D6 (unknown origin); assay type: ADME
Chain of Cytochrome P450 2D6 (P10635 whole entry): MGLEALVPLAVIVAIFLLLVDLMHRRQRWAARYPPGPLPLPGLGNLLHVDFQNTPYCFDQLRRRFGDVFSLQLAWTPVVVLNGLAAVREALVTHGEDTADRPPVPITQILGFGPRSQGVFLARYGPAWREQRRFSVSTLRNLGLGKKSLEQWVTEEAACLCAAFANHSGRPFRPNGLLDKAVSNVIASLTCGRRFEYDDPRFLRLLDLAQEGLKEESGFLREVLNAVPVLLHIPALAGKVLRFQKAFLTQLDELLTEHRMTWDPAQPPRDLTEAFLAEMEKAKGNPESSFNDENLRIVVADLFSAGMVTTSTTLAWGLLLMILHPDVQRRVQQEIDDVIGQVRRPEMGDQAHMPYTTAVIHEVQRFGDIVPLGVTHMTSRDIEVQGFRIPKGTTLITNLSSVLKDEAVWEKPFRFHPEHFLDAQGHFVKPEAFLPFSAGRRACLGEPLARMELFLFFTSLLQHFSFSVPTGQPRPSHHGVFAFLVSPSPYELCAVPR

Cytochrome P450 1A2 = molecular target: T1, Cytochrome P450 1A2 (Homo sapiens, UniProt P05177); assay: Inhibition of CYP1A2 (unknown origin); assay type: ADME
T1 sequence (P05177 whole entry): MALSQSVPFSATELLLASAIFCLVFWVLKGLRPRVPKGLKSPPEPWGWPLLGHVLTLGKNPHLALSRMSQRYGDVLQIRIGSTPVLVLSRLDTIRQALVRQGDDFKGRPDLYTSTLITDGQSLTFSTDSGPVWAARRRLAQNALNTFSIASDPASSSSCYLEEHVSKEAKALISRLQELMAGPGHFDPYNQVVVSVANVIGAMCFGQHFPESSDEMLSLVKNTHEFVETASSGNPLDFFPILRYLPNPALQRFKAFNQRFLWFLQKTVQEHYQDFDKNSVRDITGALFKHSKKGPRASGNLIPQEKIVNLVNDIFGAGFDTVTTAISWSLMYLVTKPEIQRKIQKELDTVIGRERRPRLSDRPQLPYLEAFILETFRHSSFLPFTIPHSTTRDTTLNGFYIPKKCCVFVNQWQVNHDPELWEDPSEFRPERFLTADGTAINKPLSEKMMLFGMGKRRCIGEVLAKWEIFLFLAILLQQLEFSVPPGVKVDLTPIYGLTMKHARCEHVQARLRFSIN

Cytochrome P450 2C9 = Cytochrome P450 2C9 (Homo sapiens, UniProt P11712); assay: Inhibition of CYP2C9 (unknown origin); assay type: ADME
Chain of Cytochrome P450 2C9 (P11712 whole entry): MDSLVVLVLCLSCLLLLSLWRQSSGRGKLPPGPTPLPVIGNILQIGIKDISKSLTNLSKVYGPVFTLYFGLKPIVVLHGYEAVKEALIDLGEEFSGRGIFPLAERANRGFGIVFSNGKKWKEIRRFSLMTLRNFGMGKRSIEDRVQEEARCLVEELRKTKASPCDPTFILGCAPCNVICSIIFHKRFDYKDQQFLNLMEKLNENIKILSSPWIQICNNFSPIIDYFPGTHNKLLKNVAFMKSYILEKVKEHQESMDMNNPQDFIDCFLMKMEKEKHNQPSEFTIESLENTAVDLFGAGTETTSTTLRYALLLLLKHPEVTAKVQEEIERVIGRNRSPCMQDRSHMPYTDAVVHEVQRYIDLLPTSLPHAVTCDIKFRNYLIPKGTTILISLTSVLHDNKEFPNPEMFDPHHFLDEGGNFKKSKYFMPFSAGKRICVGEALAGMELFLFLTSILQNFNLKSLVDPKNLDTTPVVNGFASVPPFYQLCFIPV

[18] = Lipophilicity, log D of the compound; assay type: physicochemical; settings: octanol/water
Cytochrome P450 2C19 = Cytochrome P450 2C19 (Homo sapiens, UniProt P33261); assay: Inhibition of CYP2C19 (unknown origin); assay type: ADME
Chain of Cytochrome P450 2C19 (P33261 whole entry): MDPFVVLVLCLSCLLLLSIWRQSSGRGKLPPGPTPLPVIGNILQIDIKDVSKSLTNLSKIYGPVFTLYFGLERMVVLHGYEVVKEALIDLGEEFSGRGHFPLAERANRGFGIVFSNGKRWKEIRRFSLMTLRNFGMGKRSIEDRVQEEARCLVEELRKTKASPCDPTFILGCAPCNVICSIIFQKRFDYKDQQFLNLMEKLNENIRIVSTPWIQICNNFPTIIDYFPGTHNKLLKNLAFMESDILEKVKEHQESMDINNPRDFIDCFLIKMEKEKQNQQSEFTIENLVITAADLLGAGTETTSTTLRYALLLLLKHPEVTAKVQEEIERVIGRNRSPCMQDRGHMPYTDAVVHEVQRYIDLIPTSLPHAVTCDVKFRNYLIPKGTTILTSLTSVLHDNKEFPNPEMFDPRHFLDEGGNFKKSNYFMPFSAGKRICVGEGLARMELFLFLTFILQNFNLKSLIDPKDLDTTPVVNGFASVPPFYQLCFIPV

[19] = Fraction unbound in human plasma; assay type: ADME, cell-free

Row | SMILES | selectivity ratio [6] | IC50 (Plasmodium falciparum [7]) | IC50 (Plasmodium falciparum [11]) | IC50 [13] | hepatocyte CLint [14] | microsomal CLint [15] | other results
1 | CN1CCN(C(=O)c2ccc3c(c2)N(Cc2c(F)cccc2Cl)C(=O)c2ccccc2S3)CC1 |  |  |  |  |  |  | IC50 (Plasmodium falciparum [1]): 7.3 nM; IC50 (Plasmodium falciparum [2]): 1040 nM; IC50 (Plasmodium falciparum [3]): 16.9 nM; IC50 (Plasmodium falciparum [4]): 8.42 nM; IC50 (Plasmodium falciparum [5]): 3.16 nM
2 | Cc1nc2c(C#N)cccc2n1-c1ccc(C(=O)NC2CC2)s1 |  |  |  |  |  |  | IC50 (Plasmodium falciparum [1]): 5.79 nM; IC50 (Plasmodium falciparum [2]): 5.07 nM; IC50 (Plasmodium falciparum [3]): 76.8 nM; IC50 (Plasmodium falciparum [4]): 16.2 nM; IC50 (Plasmodium falciparum [5]): 9.94 nM
3 | Nc1nc2ccccc2n1-c1ccccc1O | 1190 | 84 nM | 54 nM |  |  |  | IC50 (Plasmodium falciparum [8]): 329 nM; IC50 (Plasmodium falciparum [9]): 260 nM; IC50 (Plasmodium falciparum [10]): 66.1 nM; IC50 (Plasmodium falciparum [12]): 164 nM
4 | Nc1nccn1CC(O)c1ccc(Cl)cc1Cl (racemic) | > 263 | 380 nM | 280 nM |  |  |  | 
5 | Nc1nccn1CC(O)c1ccc(Cl)cc1F (racemic) | > 50 | > 2000 nM | > 2000 nM | 60000 nM |  |  | 
6 | Cc1cc(Cl)ccc1C(O)Cn1ccnc1N (racemic) | > 50 | > 2000 nM | > 2000 nM |  |  |  | 
7 | Nc1nccn1CC(O)c1cccc(Cl)c1Cl (racemic) |  | 350 nM | 230 nM |  |  |  | 
8 | Cc1cn(CC(O)c2ccc(Cl)cc2Cl)c(N)n1 (racemic) |  | 380 nM | 250 nM |  |  |  | 
9 | Cc1nc(N)n(CC(O)c2ccc(Cl)cc2Cl)c1C (racemic) | 220 | 300 nM | 200 nM | > 33300 nM |  |  | 
10 | Nc1nc(C2CC2)cn1CC(O)c1ccc(Cl)cc1Cl (racemic) | 241 | 120 nM | 70 nM | 4500 nM |  |  | 
11 | Nc1nc(-c2ccc(F)cc2)cn1CC(O)c1ccc(C(F)(F)F)cc1Cl (racemic) | 72 | 140 nM | 60 nM | 25000 nM |  |  | 
12 | Nc1nc2ccccc2n1CC(O)c1ccc(Cl)cc1Cl (racemic) |  | 18 nM | 7 nM |  | 155 µL/min/1e6 cells | 25 µL/min/mg | IC50 (Plasmodium falciparum [8]): 30 nM; IC50 (Plasmodium falciparum [9]): 11.6 nM; IC50 (Plasmodium falciparum [10]): 4.09 nM; microsomal CLint [16]: 213 µL/min/mg; IC50 (Plasmodium falciparum [12]): 42.5 nM
13 | N#Cc1ccc2nc(N)n(CC(O)c3cccc(Cl)c3Cl)c2c1 (racemic) |  | 29 nM | 300 nM |  | 53 µL/min/1e6 cells | 96 µL/min/mg | 
14 | CS(=O)(=O)c1ccc2nc(N)n(CC(O)c3cccc(Cl)c3Cl)c2c1 (racemic) | > 50 | > 2000 nM | > 2000 nM | > 33300 nM | 44 µL/min/1e6 cells | 68 µL/min/mg | 
15 | Nc1nc2ccc(Cl)cc2n1CC(O)c1cccc(Cl)c1Cl (racemic) | 2.3 | 320 nM | 40 nM | > 33300 nM | 22 µL/min/1e6 cells | 49 µL/min/mg | 
16 | Nc1nc2ccc(C(F)(F)F)cc2n1CC(O)c1ccc(C(F)(F)F)cc1Cl (racemic) | 94 | 53 nM | 10 nM | > 10500 nM | 31 µL/min/1e6 cells | 9 µL/min/mg | IC50 (Cytochrome P450 3A4): > 30000 nM; solubility [17]: 3 µM (≈ 1.27 µg/mL); IC50 (Cytochrome P450 2D6): 26300 nM; IC50 (Plasmodium falciparum [8]): 48.7 nM; IC50 (Cytochrome P450 1A2): 29400 nM; IC50 (Cytochrome P450 2C9): 27900 nM; IC50 (Plasmodium falciparum [9]): 24.1 nM; IC50 (Plasmodium falciparum [10]): 3.25 nM; microsomal CLint [16]: 62 µL/min/mg; logD [18]: > 4.6; IC50 (Plasmodium falciparum [12]): 121 nM; IC50 (Cytochrome P450 2C19): 2700 nM; fraction unbound [19]: < 0.01
